Experimental data: EP1247803A2, “Indolinone compounds suitable for modulation of protein kinases” (Sugen, Inc., priority 1996, dated 1998)

Legend:
MET = MET biochemical kinase assay; parameters: species or system human; concentration or dose not given beside the values
Source text: A met biochemical kinase assay may be performed for met generally as described above for other kinases by substituting that or the other kinases. In particular, ELISA plates are coated with goat anti-rabbit Fc antibodies, which are used to capture commercially available (from Santa Cruz Biotechnology) rabbit polyclonal antibodies to the cytoplasmic domain of human MET. […] The chimeric receptors, or MET, from these lysates are captured on the antibody coated plates. After washing away extraneous proteins, test compounds are added and an in vitro kinase assay is performed by addition of an appropriate kinase buffer (containing ATP, divalent metal ions, etc.). Incorporation of phosphate into the captured receptors is detected with an anti-phosphotyrosine antibody conjugate with horse radish peroxidase using TMB as a substrate for colorimetric detection.

EGFR = target: T1, EGFR (Homo sapiens, UniProt P00533); assay: EGFR ELISA assay (in vitro kinase activity, EGFR captured from A431 cell lysate); type: biochemical; parameters: concentration or dose not given beside the values
T1 construct: Add 7 ug A431 cell lysate per well (EGFR source); endogenous in cells; host or cells: A431
T1 sequence (P00533 25-1210): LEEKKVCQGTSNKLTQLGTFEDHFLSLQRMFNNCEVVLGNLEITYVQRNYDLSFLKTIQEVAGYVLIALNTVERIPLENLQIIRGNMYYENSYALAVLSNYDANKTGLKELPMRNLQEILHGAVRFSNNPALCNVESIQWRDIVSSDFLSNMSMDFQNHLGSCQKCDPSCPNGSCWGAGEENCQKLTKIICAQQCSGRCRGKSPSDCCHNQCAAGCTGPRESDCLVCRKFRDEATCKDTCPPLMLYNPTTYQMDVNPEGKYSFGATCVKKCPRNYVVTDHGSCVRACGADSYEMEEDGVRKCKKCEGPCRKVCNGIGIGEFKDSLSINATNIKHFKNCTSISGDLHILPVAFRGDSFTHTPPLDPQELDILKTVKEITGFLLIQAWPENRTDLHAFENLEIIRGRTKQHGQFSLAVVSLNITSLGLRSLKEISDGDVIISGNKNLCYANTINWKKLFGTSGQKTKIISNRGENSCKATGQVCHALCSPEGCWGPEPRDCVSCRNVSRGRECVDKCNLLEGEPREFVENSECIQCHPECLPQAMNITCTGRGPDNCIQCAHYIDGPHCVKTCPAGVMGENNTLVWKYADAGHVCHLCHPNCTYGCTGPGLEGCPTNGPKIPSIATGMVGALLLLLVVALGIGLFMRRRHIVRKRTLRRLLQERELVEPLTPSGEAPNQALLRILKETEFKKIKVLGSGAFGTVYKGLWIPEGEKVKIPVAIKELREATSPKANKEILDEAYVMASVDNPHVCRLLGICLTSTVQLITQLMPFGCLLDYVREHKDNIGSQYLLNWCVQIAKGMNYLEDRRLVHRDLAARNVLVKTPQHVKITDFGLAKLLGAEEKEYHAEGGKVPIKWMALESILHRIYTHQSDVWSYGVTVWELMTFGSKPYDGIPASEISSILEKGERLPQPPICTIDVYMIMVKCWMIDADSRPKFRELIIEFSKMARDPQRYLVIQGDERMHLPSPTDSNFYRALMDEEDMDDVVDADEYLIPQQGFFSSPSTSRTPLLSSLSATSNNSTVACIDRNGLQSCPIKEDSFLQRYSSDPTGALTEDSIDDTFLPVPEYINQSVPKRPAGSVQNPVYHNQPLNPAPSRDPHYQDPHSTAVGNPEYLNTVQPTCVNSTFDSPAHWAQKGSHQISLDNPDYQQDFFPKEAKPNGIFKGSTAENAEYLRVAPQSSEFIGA
Source text: To provide a consistent method for measuring the in vitro kinase activity of the EGFR in an Enzyme-linked immunosorbent assay (Elisa).
Scope. The following protocol describes the procedures used to analyze protein tyrosine kinase activity on the EGFR in an Elisa. The procedure also describes the protocol for the initial screening of drugs for inhibition or activation of protein tyrosine kinase activity.
Reagents and Supplies. • 1. […] 05-101 monoclonal anti-EGFR antibody (commercially available from UB1) -80° C, 1 ml aliquots • 3. […] TBST Buffer Formulation: 50 mM Tris pH 7.2 150 mM NaCl 0.1% Triton X-100 • 5. Blocking Buffer Formulation: 5% Carnation Instant Milk in PBS • 6. A431 cell lysate A431 cells are available from a variety of commercial sources and may be used lysed using conventional methods known to those skilled in the art or as described for lysis of the 3T3 cells in the EGF cellular assay described herein. -80° C, 1 ml aliquots • 7. TBS Buffer Formulation: 50 mM Tris pH 7.2 150 mM NaCl • 8. […] NUNC 96-well V bottom polypropylene plates Applied Scientific Catalog # AS-72092 • 11. EDTA Formulation: 200 mM EDTA pH 8.0 • 12. […] Goat anti-rabbit IgG peroxidase conjugate Biosource Catalog # ALI0404 • 14. ABTS Solution Formulation: 100 mM Citric Acid (anhydrous) 250 mM Na2HPO4 pH 4.0 0.5 mg/ml ABTS (2,2'-azino-bis(3-ethylbenzthiazoline-6-sulfonic acid) (Sigma Catalog # A-1888) Keep solution in dark at 4 C until ready to use • 15. Hydrogen peroxide 30% solution Fisher Catalog # H325 Store in the dark at 4 C until ready to use • 16. ABTS/H2O2 Formulation: 15 mls ABTS solution 2 ul H2O2 Prepare 5 minutes before use and room temperature • 17. 0.2 M HCL stock in H2O Procedure. • 1. Coat Corning 96-well elisa plates with 0.5 ug per well 05-101 antibody. Bring final volume to 100 ul per well with PBS. Coat plates overnight at 4° C. • 2. Remove unbound 05-101 from wells by inverting plate to remove liquid. Wash 1x with distilled H2O by filling wells Pat the plate on a paper towel to remove excess liquid. • 3. Block plates with 5% milk in PBS. 150 ul per well. Incubate plate 30 minutes while shaking on a microtiter plate shaker. • 4. Wash plate 3x with dionized water, then once with TBST • 5. Add 7 ug A431 cell lysate per well (EGFR source). Add PBS to final volume of 100 ul per well Incubate 30 minutes while shaking. • 6. Wash as described in step 4. • 7. At this point, drugs or extracts are added to the wells. Dilute drugs/extracts 1:100 (unless specified otherwise) in TBS + 10% DMSO in 96-well polypropylene plates. Add 120 ul TBS to ELISA plate containing captured EGFR. Add 13.5 ul diluted drugs/extracts to ELISA plate. […] Incubate plate 30 minutes while shaking. • 8. […] (150 ul final volume in well with 3 uM ATP/5 mM MnCl2 final concentration in well.) Incubate 5 minutes while shaking vigorously. *NOTE: It is critical that ATP/MnCl2 phosphorylates the receptor for 5 minutes only. It is best to add the ATP/MnCl2 with an 12 channel pipettor 1 row at a time leaving 20 seconds between each row so that the reaction may be stopped with EDTA exactly 5 minutes later (this depends on the number of plates being phosphorylated in one batch). Shake between each addition. • 9. After 5 minutes, to stop reaction, add 16.5 ul of 200 mM EDTA pH 8.0 for 20 mM final in well, shaking continuously between each addition. This is done using the same timing method as above. After last row has received EDTA, shake plate an additional minute. • 10. Wash 4x with deionized water, twice with TBST. • 11. Add rabbit polyclonal anti-phosphotyrosine serum. Dilute 1:3000 in TBST. Add 100 ul per well. Incubate 30-45 minutes while shaking. • 12. Wash as described above in step 4. • 13. Add BioSource anti-rabbit peroxidase conjugate antibody. Dilute 1:2000 in TBST. Add 100 ul per well. Incubate 30 minutes while shaking. • 14. Wash as described in step 4. • 15. Add 100 ul of ABTS/H2O2 solution to well. Incubate 5 to 10 minutes while shaking. Remove bubbles • 16. […]

SMILES	Met Kinase % Inhibition (MET) [%]	Biochem EGFR %Inhibition (EGFR) [%]
CNS(=O)(=O)c1ccc2c(c1)C(=Cc1cc(Br)c(OC)c(C(C)(C)C)c1)C(=O)N2 [10732/D07]	43.2	-19.1
CNS(=O)(=O)c1ccc2c(c1)C(=Cc1cc(Br)c(OCc3ccccc3)c(C(C)(C)C)c1)C(=O)N2 [10732/D08]	49.4	-20.6
CNS(=O)(=O)c1ccc2c(c1)C(=Cc1cc(Cl)c(OC)c(C(C)(C)C)c1)C(=O)N2 [10732/D09]	40.3	-9.9
CNS(=O)(=O)c1ccc2c(c1)C(=Cc1cc(Cl)c(OCc3ccccc3)c(C(C)(C)C)c1)C(=O)N2 [10732/D10]	33.1	-16.6
